Source: patent US12180184B2, “Pyrimidopyrazolone derivative as Wee1 inhibitor and use thereof” (Wuxi Biocity Biopharmaceutics Co., Ltd., priority 2018, dated 2024)

Experiments:
Wee1 = biological target: T1, Wee1 (Homo sapiens, UniProt P30291); assay: In vitro enzyme inhibitory activity, Wee1 kinase radiometric ([33P]-ATP) assay at Eurofins; assay type: biochemical; details: in vitro enzymatic activity; 40 min at room temperature, peptide substrate 500 μM
T1 construct: Eurofins
Description: The compounds used for experiments were all prepared in-house, and their chemical names and structural formulas were shown in the preparation examples for each compound. The experimental tests were carried out in Eurofins, which provided the experimental results.
In the Wee1 reaction system, 20 mM Tris-HCl, pH 8.5, 0.2 mM EDTA, 500 μM polypeptide substrate ([…]) (Sequence ID No. 1), 10 mM magnesium acetate and a certain concentration of […] (intensity of about 500 cpm/pmol) were added. Addition of Mg^2+ and ATP mixed solution initiated the reaction. Incubation was performed at room temperature for 40 min and 3% phosphate buffer was added to terminate the reaction. 10 μL of the reaction solution was filtered on a continuous filter P30, and washed with 75 mM phosphate buffer three times, and washed with methanol once, 5 min for each time. After drying, the scintillation counting was used to read the values.

[1] = tested on: Human pancreatic cancer PC-07-0049 subcutaneously transplanted tumor; assay: In vivo pharmacodynamics study on human pancreatic cancer PC-07-0049 subcutaneously transplanted tumor model in nude mice; set-up: species or system BALB/c nude mice; details: for TGI (%): PC-07-0049 tumor in BALB/c nude mice
Source text: Procedures: The selected experimental animals were BALB/c nude mice (6 animals per group), 6-8 weeks old, weigh 16-21 grams.
The establishment of the Human pancreatic carcinoma PC-07-0049 model was originally derived from surgically excised clinical samples, which was defined as the P0 generation after implantation in nude mice. The implantation of the tumor tissue of P0 generation into the next generation was defined as the P1 generation. The implantation was continued in nude mice in this way. The tumor of FP3 was revived through the P2 generation. The next generation generated by the FP3 generation was defined as FP4, and so on. The tumor tissue of the FP5 generation will be used for the drug efficacy test.
The PC-07-0049 FP5 tumor tissue was cut into small pieces (20-30 mm^3) after removing the necrotic tissue and was inoculated subcutaneously on the right back of each nude mouse. When the average tumor volume reached about 193 mm^3, according to the tumor volume, the animals were divided into random groups and administered.
The experimental index was to investigate whether tumor growth was inhibited, delayed or cured. The diameters of the tumors were measured with a vernier caliper twice a week. The tumor suppression efficacy of the compound was evaluated by TGI (%) or the relative tumor proliferation rate T/C (%). TGI (%) reflects the tumor growth inhibition rate. Calculation of TGI (%): TGI (%)=[(1−(Average tumor volume at the end of a treatment group−average tumor volume at the beginning of the treatment group))/(Average tumor volume at the end of treatment in the solvent control group−the average tumor volume at the beginning of treatment in the solvent control group)]×100%.

T1 sequence (P30291 whole entry): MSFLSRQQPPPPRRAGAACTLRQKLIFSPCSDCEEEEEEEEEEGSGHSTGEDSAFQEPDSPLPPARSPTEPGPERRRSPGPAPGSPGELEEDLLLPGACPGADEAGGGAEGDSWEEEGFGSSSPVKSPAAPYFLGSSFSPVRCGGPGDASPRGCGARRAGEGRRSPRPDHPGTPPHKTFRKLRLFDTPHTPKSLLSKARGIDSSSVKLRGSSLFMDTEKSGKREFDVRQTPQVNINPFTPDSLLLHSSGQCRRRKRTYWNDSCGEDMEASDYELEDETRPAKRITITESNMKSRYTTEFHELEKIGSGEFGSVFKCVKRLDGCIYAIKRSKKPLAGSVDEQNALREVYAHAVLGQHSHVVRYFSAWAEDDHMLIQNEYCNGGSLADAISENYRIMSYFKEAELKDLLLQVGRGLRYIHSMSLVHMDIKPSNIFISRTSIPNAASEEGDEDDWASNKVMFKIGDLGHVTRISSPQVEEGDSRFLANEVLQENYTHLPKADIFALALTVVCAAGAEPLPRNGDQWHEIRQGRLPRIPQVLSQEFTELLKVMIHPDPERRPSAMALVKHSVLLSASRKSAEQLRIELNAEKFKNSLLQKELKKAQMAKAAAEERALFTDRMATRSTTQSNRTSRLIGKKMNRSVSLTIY

C/C1=C/CC[C@@](C)(O)c2cccc(n2)-n2c3nc(Nc4ccc(N5CCN(C)CC5)cc4)ncc3c(=O)n2C1 [Compound 1]
IC50 (Wee1): 130 nM

CN1CCC(n2ccc3cc(Nc4ncc5c(=O)n6n(c5n4)-c4cccc(n4)[C@](C)(O)CC/C=C(/F)C6)ccc32)CC1 [Compound 2]
IC50 (Wee1): 37 nM

CN1CCN(c2ccc(Nc3ncc4c(=O)n5n(c4n3)-c3cccc(n3)[C@](C)(O)CC/C=C(/F)C5)cc2)CC1 [Compound 3]
IC50 (Wee1): 28 nM
inhibitory effect on mouse tumor (in words) ([1]; combination of compound 3 and gemcitabine compared with gemcitabine alone, conclusion drawn from Table 2): significantly improve the inhibitory effect on mouse tumor
TGI (%) ([1]; compound 3 50 mg/kg once per day in combination with gemcitabine 20 mg/kg twice per week): 102%

CN1CCN(c2ccc(Nc3ncc4c(=O)n5n(c4n3)-c3cccc(n3)[C@@](C)(O)CC/C=C(/F)C5)cc2)CC1 [Compound 4]
IC50 (Wee1): 110 nM

CN1CCN(c2ccc(Nc3ncc4c(=O)n5n(c4n3)-c3cccc(n3)[C@](C)(O)CC/C=C(\F)C5)cc2)CC1 [Compound 5]
IC50 (Wee1): 43 nM

Nc1ccn([C@@H]2O[C@H](CO)[C@@H](O)C2(F)F)c(=O)n1 [Gemcitabine, reference compound]
TGI (%) ([1]; gemcitabine alone, 20 mg/kg twice per week): 58%
